Where a name gives a salt, the structure may show the parent alone.
system: MTT (mouse pheochromocytoma); test: IC50 of cell viability (ATP content); conditions: (24 or 48 h)
How it was run: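 The IC50 was fitted with a four-parameter logistic equation to normalised CellTiter-Glo ATP luminescence from MTT mouse pheochromocytoma cells. These cells, in white 1536-well plates, had been treated for 24 or 48 hrs with library compounds at 8 final concentrations between 0.5 nM and 46 µM, and luminescence was read after 15 minutes. Positive-control wells served as 100% and DMSO wells as 0%.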

| IC50 of cell viability [µM] | SMILES |
| --- | --- |
| > 46 | CC(C)C(=O)OCC(=O)[C@@]12OC(C3CCCCC3)O[C@@H]1CC1C3CCC4=CC(=O)C=C[C@]4(C)C3[C@@H](O)C[C@@]12C (stereo partly drawn) [CICLESONIDE] |
| > 46 | CCC(=O)OC1CCC2C3CCc4cc(O)ccc4C3CCC12C (stereo not drawn) |
| > 46 | C\C1=C(/C)C(=O)\C(=C(\C)C1=O)CCCCC#CCCCC#CCO [AA-861] |
| > 46 | CC(=O)N1CC(O)CC1C(=O)O (stereo not drawn) [OXACEPROLUM] |
| > 46 | Oc1ccc(O)cc1 [Hydroquinone] |
| > 46 | CC(=O)Oc1ccccc1C(=O)O [Acetylsalicylic acid] |
| > 46 | CCCCCCOC(=O)c1cccnc1 [HEXYL NICOTINATE] |
| > 46 | CCOC(=O)[C@H](CCc1ccccc1)N[C@@H](C)C(=O)N1[C@@H](C(=O)O)C[C@H]2CCC[C@@H]21 [Ramipril] |
| > 46 | CCCCCCc1ccc(O)cc1O [4-Hexylresorcinol] |
| > 46 | CCOC(=S)SSC(=S)OCC [Dixanthogen] |
| > 46 | CC(C)(C)c1nnc(N[S+](=O)([O-])c2ccccc2)s1 [GLYBUZOLE] |
| > 46 | COC(=O)C1=C(C)NC(C)=C(C(=O)OCC(C)=O)C1c1ccccc1[N+](=O)[O-] (stereo not drawn) [Aranidipine] |
| > 46 | CC1(C)SC2[C@@H](/N=C/N3CCCCCC3)C(=O)N2[C@H]1C(=O)O (stereo partly drawn) [Amdinocillin] |
| > 46 | CO/N=C(\C(=O)N[C@@H]1C(=O)N2C(C(=O)OCOC(=O)C(C)(C)C)=C(C)CS[C@H]12)c1csc(N)n1 [CEFETAMET PIVOXIL HCl] |
| > 46 | CC[N+](C)(CC)CCOC(=O)C1c2ccccc2Oc2ccccc21 [Methantheline bromide] |
| > 46 | CCC[C@]1(CCc2ccccc2)CC(O)=C([C@H](CC)c2cccc(N[S+](=O)([O-])c3ccc(C(F)(F)F)cn3)c2)C(=O)O1 [TIPRANAVIR] |
| > 46 | CC(=O)N(CC(O)CO)c1c(I)c(C(=O)NCC(O)CO)c(I)c(C(=O)NCC(O)CO)c1I (stereo not drawn) [Iohexol] |
| > 46 | CC(C)[C@H](N)C(=O)OCCOCn1cnc2c(O)nc(N)nc21 [Valacyclovir hydrochloride] |
| > 46 | CN1CCN(CCCN2c3ccccc3Sc3ccccc32)CC1 [Perazine] |

| IC50 of cell viability [µM] | SMILES |
| --- | --- |
| > 46 | CCN(CC)C(=O)c1ccc(O)c(OC)c1 [Vanillic acid diethylamide] |
| > 46 | CCc1ccc(CCOc2ccc(CC3SC(=O)NC3=O)cc2)nc1.Cl (stereo not drawn) [PIOGLITAZONE HYDROCHLORIDE] |
| > 46 | Cc1ccc(/C(=C\CN2CCCC2)c2cccc(/C=C/C(=O)O)n2)cc1 [Acrivastine] |
| > 46 | CC1(C)OC(=O)NC1=O [DIMETHADIONE] |
| > 46 | COC(=O)C1=C(C)NC(C)=C(C(=O)OCC(C)C)C1c1ccccc1[N+](=O)[O-] (stereo not drawn) [Nisoldipine] |
| > 46 | Cc1c(C)c2c(c(C)c1OC(=O)CCC(=O)O)CC[C@@](C)(CCC[C@H](C)CCC[C@H](C)CCCC(C)C)O2 [TOCOPHERYL SUCCINATE] |
| > 46 | COc1ccc([S+](=O)([O-])Nc2nnc(CC(C)C)s2)cc1 [Glisobuzol] |
| > 46 | CCCCC(=O)N(Cc1ccc(-c2ccccc2-c2nn[nH]n2)cc1)C(C(=O)O)C(C)C (stereo not drawn) [VALSARTAN] |
| > 46 | CCN(CC)CCOc1ccccc1OC [Guaiactamine] |
| > 46 | CCCCCCCCCCOc1cc2c(O)c(C(=O)OCC)cnc2cc1OCC [DECOQUINATE] |
| > 46 | Cc1ccccc1/N=N/c1ccc(/N=N/c2c(O)ccc3ccccc23)c(C)c1 [SCARLET RED] |
| > 46 | Cc1cc(CC(=O)[O-])n(C)c1C(=O)c1ccc(Cl)cc1 [Sodium zomepirac] |
| > 46 | C[C@]12CC(=O)[C@H]3[C@@H](CC\C4=C\C(=O)\C=C/[C@]34C)[C@@H]1CC[C@]2(O)C(=O)CO [Prednisone] |
| > 46 | CCCCCCCCCCCCCCCCN [Hetaflur] |
| > 46 | Cc1cccc(CN2CCN([C@@H](c3ccccc3)c3ccc(Cl)cc3)CC2)c1 [Meclozine dihydrochloride] |
| > 46 | COc1ccc2cc(C(C)CO)ccc2c1 (stereo not drawn) [NAPROXOL] |
| > 46 | O=C(N/N=C\c1ccc([N+](=O)[O-])o1)c1ccc(O)cc1 [Nifuroxazide] |
| > 46 | N\C1=N\C2=C(N=C[N]2COCCO)C(=O)N1 [Acyclovir] |
| > 46 | NCCO [Ethanolamine] |

| IC50 of cell viability [µM] | SMILES |
| --- | --- |
| > 46 | C=C[C@]1(C)C[C@@H](OC(=O)CO)[C@]2(C)C(C)CC[C@]3(CCC(=O)[C@H]32)[C@@H](C)[C@@H]1O (stereo partly drawn) [Pleuromutilin] |
| > 46 | CCN(CC)CCNC(=O)c1ccc(N[S+](C)(=O)[O-])cc1.Cl.O [Sematilide monohydrochloride monohydrate] |
| > 46 | CC(CN(C)C)CN1c2ccccc2[S+](=O)([O-])c2ccccc21 (stereo not drawn) [OXOMEMAZINE HCl] |
| > 46 | CC(=O)Nc1ccc(OCC(O)CNC(C)C)cc1 (stereo not drawn) [PRACTOLOL] |
| > 46 | CC(C)(C)C(=O)OCOC(=O)C1N2C(=O)CC2[S+](=O)([O-])C1(C)C (stereo not drawn) [Pivoxil Sulbactam] |
| > 46 | OC(CN1CCCCC1)c1cc(-c2ccccc2)on1 (stereo not drawn) |
| > 46 | Cc1[nH]c(=O)c(C#N)cc1-c1ccncc1 [Milrinone] |
| > 46 | N=C(N)c1ccc(OCCCOc2ccc(C(=N)N)cc2Br)c(Br)c1 [Dibromopropamidine Dihydrochloride] |
| > 46 | CC(Cc1cccc(C(F)(F)F)c1)NCCOC(=O)c1ccccc1.Cl (stereo not drawn) [BENFLUOREX HYDROCHLORIDE] |
| > 46 | Cn1cc(NC(=O)c2cc(NC(=O)c3cc(NC=O)cn3C)cn2C)cc1C(=O)NCCC(=N)N [DISTAMYCIN A] |
| > 46 | Cc1cn[nH]c1.Cl [4-Methylpyrazole hydrochloride] |
| > 46 | c1ccc(-c2nc[nH]c2-c2ccccc2)cc1 [DIPHENYLIMIDAZOLE] |
| > 46 | [Na+].CC1(C)S[C@H]2[C@H](NC(=O)[C@@H](NC(=O)N3CCNC3=O)C4=CC=CC=C4)C(=O)[N@]2[C@H]1C([O-])=O [Azlocillin sodium salt] |
| > 46 | N[S+](=O)([O-])c1cc(C(=O)O)c(NCc2ccco2)cc1Cl [Furosemide] |
| > 46 | C[C@@H](CN(C)C)CN1c2ccccc2CCc2ccccc21 [Trimipramine maleate salt] |
| > 46 | CC(C)(S)C(=O)NC(CS)C(=O)O (stereo not drawn) [Bucillamine] |
| > 46 | Cc1cc(O)cc2c1O[C@](C)(CCC[C@H](C)CCC[C@H](C)CCCC(C)C)CC2 [Delta-Vitamin E] |
| > 46 | COc1ccc([C@@H]2CC(=O)c3c(O)cc(O[C@@H]4O[C@@H](CO[C@@H]5O[C@@H](C)[C@@H](O)[C@@H](O)[C@H]5O)[C@@H](O)[C@@H](O)[C@H]4O)cc3O2)cc1O [Hesperidin] |

| SMILES | IC50 of cell viability [µM] |
| --- | --- |
| O=C([O-])c1ccccc1O [ZINC SALICYLATE] | > 46 |
| O=c1c2ccccc2[se]n1-c1ccccc1 [Ebselen] | > 46 |
| CNCCc1ccccn1.C[S+](=O)([O-])O [Betahistine mesylate] | > 46 |
| CCc1cc(OC)c(C[C@H](C)N)cc1OC [(+)-2,5-Dimethoxy-4-ethylamphetamine] | > 46 |
| ClC1=CC=C2[N]3C=NN=C3C\N=C(\C4=CC=CC=C4)C2=C1 [ESTAZOLAM] | > 46 |
| CCCC(C)(COC(N)=O)COC(=O)NC1CC1 (stereo not drawn) [Lorbamate] | > 46 |
| COC1=CC2=C(C=C1OC)[C@@]34CCN5CC/6=C/COC7CC(=O)N2C3[C@H]7[C@@H]6C[C@H]45 (stereo partly drawn) [BRUCINE] | > 46 |
| N#CN [Cyanamide] | > 46 |
| CCCCCCCCCC(=O)O[C@H]1CC[C@H]2[C@@H]3CCC4=CC(=O)CC[C@@H]4[C@H]3CC[C@]12C [Nandrolone decanoate] | > 46 |
| CCON=O [SWEET SPIRITS OF NITRE] | > 46 |
| N#CCCN.N#CCCN.O=C(O)/C=C/C(=O)O [3-Aminopropionitrile fumarate] | > 46 |
| CC(C)\C1=C(/CN(C)[C@@H](C)CC2=CC=CC=C2)N(C)N(C3=CC=CC=C3)C1=O [Famprofazone] | > 46 |
| [K+].C[C@@]12CCC(=O)\C=C1\C=C/[C@@H]3[C@@H]2CC[C@]4(C)[C@@H]3CC[C@]4(O)CCC([O-])=O [Canrenoic acid potassium salt] | > 46 |
| CCOC(=O)C1(c2ccccc2)CCN(CCC(C#N)(c2ccccc2)c2ccccc2)CC1 [Diphenoxylate] | > 46 |
| C[N+]1([O-])[C@@H]2CC(OC(=O)[C@@H](CO)c3ccccc3)C[C@H]1[C@H]1O[C@H]12 (stereo partly drawn) [Scopolamin-N-oxide hydrobromide] | > 46 |
| CCN(CC)C(=O)/C(Cl)=C(\C)OP(=O)(OC)OC [PHOSPHAMIDON] | > 46 |
| C[N+]1(C)CCC[C@H](OC(=O)C(O)(c2ccccc2)c2ccccc2)C1 [Mepenzolate bromide] | > 46 |

— the supplement of paper PMC3974653
